Key:
hTERT fibroblasts [1] = experiment: Differentiation of TGF-β-stimulated hTERT fibroblasts into myofibroblasts, α-SMA-positive cells by flow cytometry; format: cell-based, human; conditions: 5 µg/ml; for percentage of cells capable of expressing α-SMA: sub-optimal dose (0.1 ng/ml) of TGF-β, Figure 2
Procedure: The study aimed at determining the effects of piceide treatment on the differentiation of corneal fibroblasts immortalised with human inverse telomerase transcriptase (hTERT fibroblasts) stimulated with sub-optimal, optimal or above-optimal doses of TGF-β. Fibroblast differentiation into myofibroblasts was determined by examining whether there was any α-smooth muscle actin (α-SMA).
Some hTERT fibroblasts maintained in a DMEM culture were re-suspended at a concentration of 1x10^6 and placed on 24mm-well plates. The cells were incubated at a temperature of 37°C with piceide or resveratrol at doses of 5 µg/ml. After 24 h the cells were stimulated with optimal (1ng/ml), sub-optimal (0.1 ng/ml) and above-optimum (10 ng ml) doses of TGF-β. After 3, 5 and 10 days of incubation, the fibroblasts were washed and re-suspended in PBS at a concentration of 1x10^6, in order to determine the α-SMA-positive cells by means of flow cytometry.
The cells treated in the aforesaid way were permeabilised by treatment with 70% ethanol and then labelled with 5µg/ml of a human anti-α-SMA antibody labelled with FITC. After colouring, the cells were fixed in paraformaldehyde and analysed by a means of a FACScan cytofluorimeter.

[2] = system: fibroblasts of normal corneal origin; experiment: Differentiation of TGF-β-stimulated fibroblasts of normal corneal origin into myofibroblasts, α-SMA expression; format: cell-based
Text: As reported in detail in the experimental section below, piceide has - unlike resveratrol - unexpectedly proven to be capable of modulating the capacity of TGF-β to cause fibroblast differentiation into myofibroblasts.

[3] = system: human liver myofibroblasts; conditions: literature; cited from earlier work
iNOS = iNOS production by fibroblasts of normal corneal origin stimulated with IL-1; format: cell-based; conditions: equal doses
Text: As will be illustrated in greater detail in the experimental section below, piceide - at non-toxic levels - blocks iNOS production and its activity is correlated to the dose. […] This different activity is probably due to the different chemical structure of the two molecules and to the consequent different biological characteristics, among which the greater bioavailability of piceide at the cell level is important. Another anti-inflammatory effect of piceide, linked to what has been said above, lies in its capacity to inhibit cyclooxygenase synthesis and thus the synthesis and release of pro-inflammatory prostaglandins.

hTERT fibroblasts [4] = experiment: Toxicity for hTERT fibroblasts at the doses assayed; conditions: doses of the differentiation study, 5 µg/ml
[5] = system: inducible nitric-synthesase oxide (iNOS); experiment: iNOS production by hTERT fibroblasts stimulated with cytokines (IL-1 + IFN-γ), iNOS-positive cells by flow cytometry; format: cell-based, human; conditions: for number of iNOS-positive fibroblasts: pre-incubation at 1.25 - 2.5 - 5 µg/ml, then IL-1 3 ng/ml + IFN-γ 250 U/ml, 48 h, Figure 1
Procedure: The study aimed at determining the effects of treatment with piceide and resveratrol on the inducible nitric-synthesase oxide (iNOS) by corneal fibroblasts immortalised with human Telomerase Reverse Transcriptase (hTERT fibroblasts), stimulated with interferon-γ (IFN-γ) and interleukine-1 (IL-1).
Some hTERT fibroblasts were maintained in a DMEM culture medium. They were subsequently re-suspended at a concentration of 1x10^6 and placed on 24 mm-well plates. The cells were incubated at a temperature of 37°C with piceide or resveratrol at doses of 1.25 - 2.5 - 5 µg/ml. After 15 minutes the following were added to the wells containing the cells: IL-1 at a concentration of 3 ng/ml, and IFN-γ at a concentration of 250 U/ml. After a further 48 h of incubation, the fibroblasts were washed and re-suspended in PBS at a concentration of 1x10^6, in order to determine the iNOS-positive cells by means of flow cytometry.
The cells treated in the aforesaid way were permeabilised by treatment with 70% ethanol and then labelled with 5 µg/ml of a human anti-iNOS antibody labelled with FITC. After; colouring, the cells were fixed in paraformaldehyde and analysed by means of a FACScan cytofluorimeter.

**Q.** For OC[C@H]1O[C@@H](Oc2cc(O)cc(/C=C/c3ccc(O)cc3)c2)[C@H](O)[C@@H](O)[C@@H]1O [piceide, resveratrol-3-O-β-mono-D-glucoside], which “percentage of α-SMA+ cells” value (hTERT fibroblasts [1]; above-optimal dose (10 ng/ml) of TGF-β, 5th day, Figure 4) is on record?
**A.** percentage decrease in fibroblasts which was already significant

**Q.** What about the “percentage of α-SMA+ cells” value (hTERT fibroblasts [1]; above-optimal dose (10 ng/ml) of TGF-β, 10th day, Figure 4) of the same molecule?
**A.** brought the number of fibroblasts back to physiological conditions

**Q.** And the “percentage of α-SMA-positive cells” value (hTERT fibroblasts [1]; optimal dose (1 ng/ml) of TGF-β, all three time intervals (3, 5, 10 days), Figure 3)?
**A.** did not lead to any significant percentage variations

**Q.** What about the “percentage of cells capable of expressing α-SMA” value (“percentage … of expressing α-SMA” for short) (hTERT fibroblasts [1]; 5th day) of the same molecule?
**A.** decreased, although still remaining statistically significant

**Q.** And the “percentage … of expressing α-SMA” value (hTERT fibroblasts [1]; 10th day)?
**A.** no longer any significant percentages of cells able to express α-SMA

**Q.** And the “percentage … of expressing α-SMA” value (hTERT fibroblasts [1]; 3 days, compared to non-treated)?
**A.** statistically significant increase

**Q.** And the “TGF-β activity assessed by α-SMA expression” value ([2]; fibroblasts of normal corneal origin, sub-optimal concentration of TGF-β)?
**A.** increase growth factor activity

**Q.** What about the α-SMA expression ([2]; normal fibroblasts, above-optimal concentration of TGF-β) of the same molecule?
**A.** decrease in α-SMA expression

**Q.** And the “effect on liver myofibroblasts” value [3]?
**A.** did not show any significant effects

**Q.** What about the “inhibition of iNOS production compared to resveratrol” value (iNOS) of the same molecule?
**A.** more effective

**Q.** And the toxicity (hTERT fibroblasts [4])?
**A.** does not appear toxic

**Q.** What about the “decrease in iNOS-positive fibroblasts compared to resveratrol” value ([5]; equal doses 1.25 - 2.5 - 5 µg/ml, differences statistically significant at each point) of the same molecule?
**A.** greater

**Q.** And the “number of iNOS-positive fibroblasts” value [5]?
**A.** dose-dependent decrease

**Q.** What does the source list for Oc1ccc(/C=C/c2cc(O)cc(O)c2)cc1 [resveratrol, reference compound]?
**A.** percentage of α-SMA+ cells (hTERT fibroblasts [1]; above-optimal dose of TGF-β, time not stated): did not lead to any statistically significant variation; percentage of α-SMA+ cells (hTERT fibroblasts [1]; optimal dose of TGF-β, time not stated): did not lead to any statistically significant variation; percentage of α-SMA+ cells (hTERT fibroblasts [1]; sub-optimal dose of TGF-β, time not stated): did not lead to any statistically significant variation; effect on liver myofibroblasts [3]: able to deactivate human liver myofibroblasts; α-SMA expression [3]: reduction; number of iNOS-positive fibroblasts [5]: decrease

**Q.** With Oc1cc(O)cc(/C=C/c2ccc(O)c(O)c2)c1 [trans-piceatannol, trans-3,4',3',5-tetrahydroxystilbene] as the molecule, how does the “effect on liver myofibroblasts” value [3] read?
**A.** neither trans-piceide nor another hydroxystilbene - trans-piceatannol (trans-3,4',3',5-tetrahydroxystilbene) - have shown any effect

Source: EP1928474B1, “USE OF GLUCOSYLATED HYDROXYSTILBENES FOR THE PREVENTION AND TREATMENT OF EYE PATHOLOGIES” (Tubilux Pharma S.P.A., priority 2005, dated 2007)
